The target in assay [1] is Rho-associated protein kinase 2 (Homo sapiens, UniProt O75116). Nature of the assay: Inhibition of recombinant human ROCK2 (11 to 552 residues) using KEAKEKRQEQIAKR as substrate incubated for 40 mins in presence of [gamma-33P]ATP and 10 uM ATP by radiometric scintillation counting analysis.
In assay [2] the target is Rho-associated protein kinase 1 (Homo sapiens, UniProt Q13464). Nature of the assay: Inhibition of recombinant human ROCK1 (17 to 535 residues) using […] as substrate incubated for 40 mins in presence of [gamma-33P]ATP and 10 uM ATP by radiometric scintillation counting analysis.
Assay [3] in a line: Inhibition of human PKA using Kemptide as substrate incubated for 40 mins in presence of [gamma-33P]ATP by radiometric scintillation counting analysis.

Rho-associated protein kinase 2, sequence (O75116 whole entry, the tested form may be a part): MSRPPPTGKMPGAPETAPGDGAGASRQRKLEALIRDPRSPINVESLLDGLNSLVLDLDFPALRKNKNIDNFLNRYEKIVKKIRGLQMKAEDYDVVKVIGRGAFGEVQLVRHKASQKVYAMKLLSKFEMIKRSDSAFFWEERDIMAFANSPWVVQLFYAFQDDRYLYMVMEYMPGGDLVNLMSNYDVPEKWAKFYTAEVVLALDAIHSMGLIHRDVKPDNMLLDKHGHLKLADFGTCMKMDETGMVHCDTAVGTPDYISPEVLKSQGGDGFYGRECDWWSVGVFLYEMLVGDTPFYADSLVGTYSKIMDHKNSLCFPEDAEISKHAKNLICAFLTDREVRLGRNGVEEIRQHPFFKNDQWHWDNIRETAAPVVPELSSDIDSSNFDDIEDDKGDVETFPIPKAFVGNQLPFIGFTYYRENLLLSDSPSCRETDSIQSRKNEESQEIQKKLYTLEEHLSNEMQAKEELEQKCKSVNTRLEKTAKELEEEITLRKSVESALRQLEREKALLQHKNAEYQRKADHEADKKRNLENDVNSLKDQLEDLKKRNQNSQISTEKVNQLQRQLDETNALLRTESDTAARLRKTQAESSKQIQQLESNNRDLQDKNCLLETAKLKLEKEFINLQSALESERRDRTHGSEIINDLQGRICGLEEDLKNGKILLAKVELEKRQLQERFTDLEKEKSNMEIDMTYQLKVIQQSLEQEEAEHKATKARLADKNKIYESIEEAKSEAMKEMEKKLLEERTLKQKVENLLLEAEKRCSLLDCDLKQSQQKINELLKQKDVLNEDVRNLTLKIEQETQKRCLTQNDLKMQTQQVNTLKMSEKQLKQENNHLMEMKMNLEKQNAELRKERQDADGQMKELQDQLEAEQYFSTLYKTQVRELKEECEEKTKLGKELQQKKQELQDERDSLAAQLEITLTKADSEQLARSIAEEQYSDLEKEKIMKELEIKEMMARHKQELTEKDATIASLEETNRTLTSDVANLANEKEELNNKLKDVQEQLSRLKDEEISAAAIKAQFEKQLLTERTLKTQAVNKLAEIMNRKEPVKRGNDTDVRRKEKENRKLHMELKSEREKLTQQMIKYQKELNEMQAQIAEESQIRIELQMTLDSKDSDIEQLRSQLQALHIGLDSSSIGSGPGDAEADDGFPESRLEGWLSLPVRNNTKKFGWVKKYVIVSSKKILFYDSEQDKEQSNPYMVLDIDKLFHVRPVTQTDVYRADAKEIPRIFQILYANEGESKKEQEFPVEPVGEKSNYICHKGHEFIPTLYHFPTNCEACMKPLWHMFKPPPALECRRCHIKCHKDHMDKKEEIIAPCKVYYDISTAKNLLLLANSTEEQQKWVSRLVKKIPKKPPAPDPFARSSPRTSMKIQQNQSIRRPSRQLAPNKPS
Rho-associated protein kinase 1, sequence (Q13464 whole entry, the tested form may be a part): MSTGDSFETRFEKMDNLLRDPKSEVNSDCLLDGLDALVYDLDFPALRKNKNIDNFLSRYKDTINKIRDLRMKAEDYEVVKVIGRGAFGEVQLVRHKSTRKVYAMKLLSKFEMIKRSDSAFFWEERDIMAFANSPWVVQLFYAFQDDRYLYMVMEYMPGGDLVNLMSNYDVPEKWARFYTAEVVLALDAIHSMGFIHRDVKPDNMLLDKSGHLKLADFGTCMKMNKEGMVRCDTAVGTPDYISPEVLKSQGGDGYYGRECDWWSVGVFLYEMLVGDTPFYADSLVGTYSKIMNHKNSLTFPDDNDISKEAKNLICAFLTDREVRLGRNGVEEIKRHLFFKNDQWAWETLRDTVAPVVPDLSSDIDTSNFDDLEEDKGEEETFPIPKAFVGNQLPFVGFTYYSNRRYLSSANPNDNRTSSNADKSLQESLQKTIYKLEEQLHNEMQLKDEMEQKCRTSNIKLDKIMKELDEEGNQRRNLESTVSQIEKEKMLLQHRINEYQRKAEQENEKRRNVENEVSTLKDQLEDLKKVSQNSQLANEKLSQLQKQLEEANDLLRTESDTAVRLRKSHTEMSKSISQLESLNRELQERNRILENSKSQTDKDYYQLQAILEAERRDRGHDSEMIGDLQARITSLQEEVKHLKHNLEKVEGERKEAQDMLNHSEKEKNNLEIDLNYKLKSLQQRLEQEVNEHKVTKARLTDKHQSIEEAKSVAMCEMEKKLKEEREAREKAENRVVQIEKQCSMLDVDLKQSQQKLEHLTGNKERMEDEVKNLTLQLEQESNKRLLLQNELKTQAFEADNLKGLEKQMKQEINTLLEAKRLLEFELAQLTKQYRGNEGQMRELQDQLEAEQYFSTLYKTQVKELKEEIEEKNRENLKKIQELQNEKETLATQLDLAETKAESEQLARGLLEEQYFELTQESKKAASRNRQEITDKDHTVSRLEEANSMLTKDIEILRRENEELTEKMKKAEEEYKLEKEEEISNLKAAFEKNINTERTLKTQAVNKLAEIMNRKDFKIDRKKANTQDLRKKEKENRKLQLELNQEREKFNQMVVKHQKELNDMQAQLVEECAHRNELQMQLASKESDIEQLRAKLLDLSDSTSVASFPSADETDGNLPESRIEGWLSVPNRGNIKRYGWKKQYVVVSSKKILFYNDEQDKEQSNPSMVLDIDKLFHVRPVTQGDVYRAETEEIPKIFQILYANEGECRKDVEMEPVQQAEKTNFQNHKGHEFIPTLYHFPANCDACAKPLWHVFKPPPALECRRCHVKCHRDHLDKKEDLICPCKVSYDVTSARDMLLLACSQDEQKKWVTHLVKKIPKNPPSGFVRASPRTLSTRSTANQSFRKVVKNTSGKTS

For `CCCc1ccc(C(=O)Nc2cccc(NC(=O)COc3ccc4c(=O)ccoc4c3)c2)cc1`, the results for the IC50 in assay [1], in assay [2] and in assay [3] were 14 nM, 143 nM and over 10000 nM, respectively.

`Cc1cc(NC(=O)COc2ccc3c(=O)ccoc3c2)cc(NC(=O)c2ccc(N(C)C)cc2)c1`: the concentration for half-maximal inhibition (IC50) in assay [1], in assay [2] and in assay [3] was over 10000 nM in each case.

Regarding `CN(C)c1ccc(C(=O)Nc2cccc(NC(=O)COc3ccc4occc(=O)c4c3)c2)cc1`, the IC50 in assay [1], in assay [2] and in assay [3] was over 10000 nM throughout.

With `O=C(COc1ccc2c(=O)ccoc2c1)Nc1cccc(NC(=O)c2cccc([N+](=O)[O-])c2)c1`, the figures for the concentration for half-maximal inhibition (IC50) in assay [1], in assay [2] and in assay [3] were 41 nM, 528 nM and over 10000 nM, respectively.

For `CC(C)(C)c1ccc(C(=O)Nc2cccc(NC(=O)COc3ccc4c(=O)ccoc4c3)c2)cc1`, the half-inhibitory concentration (IC50) in assay [1] is 34 nM; in assay [2], 165 nM; in assay [3], over 10000 nM.

For the molecule `O=C(COc1ccc2c(=O)ccoc2c1)Nc1cccc(NC(=O)c2cnc(C(F)(F)F)s2)c1`, the IC50 in assay [1] was 10 nM; in assay [2], 160 nM; in assay [3], over 10000 nM.

In the case of `Cc1c(OCC(=O)Nc2cccc(NC(=O)c3ccc(N(C)C)cc3)c2)ccc2c(=O)ccoc12`, the figures for the 50% inhibitory concentration (IC50) in assay [1], in assay [2] and in assay [3] were 4160 nM, over 10000 nM and over 10000 nM, respectively.

Take `Cc1cc(C(=O)Nc2cccc(NC(=O)COc3ccc4c(=O)ccoc4c3)c2)no1`: the IC50 in assay [1] is 5 nM; in assay [2], 68 nM; in assay [3], over 10000 nM.

Consider `O=C(COc1ccc2c(=O)ccoc2c1)Nc1cccc(NS(=O)(=O)c2ccc(OC(F)(F)F)cc2)c1`, for which the half-maximal inhibitory concentration (IC50) in assay [1] was 1280 nM; in assay [2], 6440 nM; in assay [3], over 10000 nM.

With `Cc1cc(C(=O)Nc2cccc(NC(=O)COc3ccc4c(=O)ccoc4c3)c2)ccc1C(F)(F)F`, the IC50 was 43 nM in assay [1], 460 nM in assay [2] and over 10000 nM in assay [3].

In the case of `COC(=O)c1ccc(C(=O)Nc2cccc(NC(=O)COc3ccc4c(=O)ccoc4c3)c2)cc1`, the concentration for half-maximal inhibition (IC50) in assay [1] was 29 nM; in assay [2] it was 72 nM; in assay [3], over 10000 nM.

On to `CN(C)c1ccc(C(=O)Nc2cccc(NC(=O)COc3ccc4c(c3)OCO4)c2)cc1`, for which the IC50 in assay [1], in assay [2] and in assay [3] was over 10000 nM throughout.

Consider `Cn1ccc(S(=O)(=O)Nc2cccc(NC(=O)COc3ccc4c(=O)ccoc4c3)c2)n1`, for which the IC50 in assay [1] is 1340 nM; in assay [2] it was over 10000 nM; in assay [3] it was over 10000 nM.

As to `O=C(COc1ccc2c(=O)ccoc2c1)Nc1cccc(NC(=O)c2ccc(Br)cc2)c1`, the IC50 in assay [1] is 49 nM; in assay [2], 303 nM; in assay [3], over 10000 nM.

Turning to `O=C(COc1ccc2c(=O)ccoc2c1)Nc1cccc(NC(=O)c2ccc(OC(F)(F)F)cc2)c1`, the values for the IC50 in assay [1], in assay [2] and in assay [3] were 77 nM, 869 nM and over 10000 nM, respectively.

Regarding `Cc1cc(NC(=O)COc2ccc3c(=O)ccoc3c2)ccc1NC(=O)c1ccc(N(C)C)cc1`, the half-maximal inhibitory concentration (IC50) was 4210 nM in assay [1], over 10000 nM in assay [2] and over 10000 nM in assay [3].

In the case of `CN(C)c1ccc(C(=O)Nc2ccc(CNC(=O)COc3ccc4c(=O)ccoc4c3)cc2)cc1`, the IC50 in assay [1] was 999 nM; in assay [2] it was over 10000 nM; in assay [3], over 10000 nM.

With `CN(C)c1ccc(C(=O)Nc2cc(Br)cc(NC(=O)COc3ccc4c(=O)ccoc4c3)c2)cc1`, the IC50 was 4560 nM in assay [1], over 10000 nM in assay [2] and over 10000 nM in assay [3].

With `O=C(COc1ccc2c(=O)ccoc2c1)Nc1cccc(NS(=O)(=O)c2ccc(C(F)(F)F)cc2)c1`, the IC50 in assay [1] is 6890 nM; in assay [2] it was over 10000 nM; in assay [3], over 10000 nM.

Take `CN(C)c1ccc(C(=O)Nc2cc(NC(=O)COc3ccc4c(=O)ccoc4c3)cc(C(F)(F)F)c2)cc1`: the IC50 in assay [1], in assay [2] and in assay [3] was over 10000 nM in each case.

As for `Cc1cc(NC(=O)COc2ccc3c(=O)ccoc3c2)cc(NC(=O)c2ccc(N(C)C)cc2)c1C`, the 50% inhibitory concentration (IC50) was 374 nM in assay [1], 3950 nM in assay [2] and over 10000 nM in assay [3].

With `O=C(COc1ccc2c(=O)ccoc2c1)Nc1cccc(NC(=O)c2ccc(F)cc2)c1`, the concentration for half-maximal inhibition (IC50) in assay [1] was 54 nM; in assay [2], 129 nM; in assay [3] it was over 10000 nM.

As for `COc1ccc(OCC(=O)Nc2cccc(NC(=O)c3ccc(N(C)C)cc3)c2)cc1F`, the IC50 in assay [1] was 652 nM; in assay [2], 1820 nM; in assay [3], over 10000 nM.

For the molecule `Nc1cccc(C(=O)Nc2cccc(NC(=O)COc3ccc4c(=O)ccoc4c3)c2)c1`, the half-inhibitory concentration (IC50) in assay [1] is 58 nM; in assay [2], 670 nM; in assay [3] it was over 10000 nM.

Regarding `CN(C)c1ccc(C(=O)Nc2ccc(NC(=O)COc3ccc4c(=O)ccoc4c3)cc2)cc1`, the IC50 in assay [1] was 302 nM; in assay [2], 1050 nM; in assay [3], over 10000 nM.

For `CCOc1ccc(C(=O)Nc2cccc(NC(=O)COc3ccc4c(=O)ccoc4c3)c2)cc1`, the half-maximal inhibitory concentration (IC50) in assay [1] was 9 nM; in assay [2] it was 17 nM; in assay [3] it was over 10000 nM.

For `Cc1nc(C(=O)Nc2cccc(NC(=O)COc3ccc4c(=O)ccoc4c3)c2)cs1`, the IC50 in assay [1] was 33 nM; in assay [2], 473 nM; in assay [3], over 10000 nM.

Regarding `NCc1ccc(C(=O)Nc2cccc(NC(=O)COc3ccc4c(=O)ccoc4c3)c2)cc1`, the IC50 in assay [1] was 66 nM; in assay [2], 532 nM; in assay [3] it was over 10000 nM.

Turning to `COc1cccc(OCC(=O)Nc2cccc(NC(=O)c3ccc(N(C)C)cc3)c2)c1`, the values for the IC50 in assay [1], in assay [2] and in assay [3] were 5740 nM, over 10000 nM and over 10000 nM, respectively.

For the molecule `CN(C)c1ccc(S(=O)(=O)Nc2cccc(NC(=O)COc3ccc4c(=O)ccoc4c3)c2)cc1`, the IC50 in assay [1] is 263 nM; in assay [2], 803 nM; in assay [3] it was over 10000 nM.

With `CN(C)c1ccc(C(=O)Nc2cccc(NC(=O)COc3ccc4c(c3)CCC(=O)N4)c2)cc1`, the values for the IC50 in assay [1], in assay [2] and in assay [3] were 9970 nM, over 10000 nM and over 10000 nM, respectively.

As to `O=C(COc1ccc2c(=O)ccoc2c1)Nc1cccc(NC(=O)c2ccccc2)c1`, the concentration for half-maximal inhibition (IC50) came to 16 nM in assay [1], 120 nM in assay [2] and 3260 nM in assay [3].

Take `Cc1c(NC(=O)COc2ccc3c(=O)ccoc3c2)cccc1NC(=O)c1ccc(N(C)C)cc1`: the half-inhibitory concentration (IC50) in assay [1], in assay [2] and in assay [3] was over 10000 nM throughout.

Regarding `CN(C)c1ccc(C(=O)Nc2cc(F)cc(NC(=O)COc3ccc4c(=O)ccoc4c3)c2)cc1`, the IC50 in assay [1] is 22 nM; in assay [2], 49 nM; in assay [3], over 10000 nM.

As to `CN(C)c1ccc(C(=O)Nc2cccc(NC(=O)COc3ccc4c(c3)OCCC4=O)c2)cc1`, the results for the IC50 in assay [1], in assay [2] and in assay [3] were 85 nM, 144 nM and over 10000 nM, respectively.

Take `COc1ccc(C(=O)Nc2cccc(NC(=O)COc3ccc4c(=O)ccoc4c3)c2)cc1`: the half-inhibitory concentration (IC50) in assay [1] was 7 nM; in assay [2], 18 nM; in assay [3], over 10000 nM.

On to `Cc1coc2cc(OCC(=O)Nc3cccc(NC(=O)c4ccc(N(C)C)cc4)c3)ccc2c1=O`, for which the IC50 was 2150 nM in assay [1], over 10000 nM in assay [2] and over 10000 nM in assay [3].

With `Nc1ccc(C(=O)Nc2cccc(NC(=O)COc3ccc4c(=O)ccoc4c3)c2)cc1`, the half-maximal inhibitory concentration (IC50) in assay [1] is 83 nM; in assay [2], 802 nM; in assay [3] it was over 10000 nM.

For the molecule `CN(C)c1ccc(C(=O)Nc2cccc(NC(=O)COc3ccc4c(c3)NC(=O)CC4)c2)cc1`, the values for the concentration for half-maximal inhibition (IC50) in assay [1], in assay [2] and in assay [3] were 3140 nM, over 10000 nM and over 10000 nM, respectively.

For the molecule `CN(C)c1ccc(C(=O)Nc2ccc(NC(=O)COc3ccc4c(=O)ccoc4c3)cc2C(F)(F)F)cc1`, the IC50 was 7100 nM in assay [1], over 10000 nM in assay [2] and over 10000 nM in assay [3].

For the molecule `COc1ccc(OCC(=O)Nc2cccc(NC(=O)c3ccc(N(C)C)cc3)c2)cc1OC`, the IC50 in assay [1], in assay [2] and in assay [3] was over 10000 nM each time.

`CN(C)c1ccc(C(=O)Nc2cccc(NS(=O)(=O)COc3ccc4c(=O)ccoc4c3)c2)cc1`: the IC50 in assay [1] is 27 nM; in assay [2] it was 117 nM; in assay [3] it was over 10000 nM.

Turning to `CCc1ccc(C(=O)Nc2cccc(NC(=O)COc3ccc4c(=O)ccoc4c3)c2)cc1`, the values for the IC50 in assay [1], in assay [2] and in assay [3] were 24 nM, 235 nM and over 10000 nM, respectively.

On to `O=C(COc1ccc2c(=O)ccoc2c1)Nc1cccc(NC(=O)c2ccc(C(=O)O)cc2)c1`, for which the IC50 in assay [1] is 2030 nM; in assay [2] it was 6890 nM; in assay [3] it was over 10000 nM.

Take `N#Cc1ccc(C(=O)Nc2cccc(NC(=O)COc3ccc4c(=O)ccoc4c3)c2)cc1`: the half-maximal inhibitory concentration (IC50) in assay [1] was 15 nM; in assay [2] it was 123 nM; in assay [3], over 10000 nM.

Turning to `Cc1ccc(NC(=O)c2ccc(N(C)C)cc2)cc1NC(=O)COc1ccc2c(=O)ccoc2c1`, the figures for the 50% inhibitory concentration (IC50) in assay [1], in assay [2] and in assay [3] were 3530 nM, over 10000 nM and over 10000 nM, respectively.

Regarding `CC(C)(C)c1ccc(S(=O)(=O)Nc2cccc(NC(=O)COc3ccc4c(=O)ccoc4c3)c2)cc1`, the IC50 is 899 nM in assay [1], over 10000 nM in assay [2] and over 10000 nM in assay [3].

`CC(=O)c1ccc(OCC(=O)Nc2cccc(NC(=O)c3ccc(N(C)C)cc3)c2)cc1F`: the values for the IC50 in assay [1], in assay [2] and in assay [3] were 98 nM, 445 nM and over 10000 nM, respectively.

Take `CC(C)(C)c1cc(C(=O)Nc2cccc(NC(=O)COc3ccc4c(=O)ccoc4c3)c2)no1`: the IC50 in assay [1] was 5 nM; in assay [2] it was 101 nM; in assay [3], over 10000 nM.

As usually defined, the IC50 is the midpoint of a concentration-inhibition curve.

The values are drawn from ChEMBL document CHEMBL4376834, “Discovery of 4H-Chromen-4-one Derivatives as a New Class of Selective Rho Kinase (ROCK) Inhibitors, which Showed Potent Activity in ex Vivo Diabetic Retinopathy Models” (J Med Chem, 2019).
